Test results reported in patent EP4763837A1, “PHOTOCHROMIC COMPOUND, CURABLE COMPOSITION, OPTICAL ARTICLE, LENS, AND EYEGLASSES” (TOKUYAMA CORPORATION, priority 2023, dated 2025).
Values joined by “and” are separate entries in the source; they are usually repeats but may differ in a detail not shown here. Identical values can stand only once.

Experiments:
Type in all cases: physicochemical
[1] = Photochromic property of photochromic cured product made by kneading method; conditions: for Residual ratio: A96/A0 x 100 after 96 hours accelerated degradation, xenon weather meter X25; for Color developing density at 23°C: absorbance difference after 240 seconds irradiation at the maximum absorption wavelength of the same line
Method: (§1) The resulting photochromic laminates were evaluated by the below-mentioned methods. • (1) Photochromic property • [1] Maximum absorption wavelength (λmax): This is the maximum absorption wavelength after color development determined by a spectrophotometer manufactured by Otsuka Electronics Co., Ltd. (instantaneous multichannel photo detector MCPD3000) and was used as an index of a color tone upon color development. • [2] Color developing density at 23°C (A23): This is a difference between an absorbance {ε(240)} after irradiation with light at 23°C for 240 seconds and an absorbance ε(0) when not irradiated with light at the maximum absorption wavelength and was used as an index of a color developing density. The higher this value is, the better a photochromic property is. • [3] Color fading half-life at 23°C [τ1/2 (sec).)]: This is a period of time taken by an absorbance at the maximum absorption wavelength of a sample to decrease to 1/2 of {ε(240)-ε(0)} when irradiation is stopped after irradiation with light at 23°C for 240 seconds, and was used as an index of a color fading rate. The shorter this period of time is, the faster the color fading rate is. • [4] Residual ratio (A96/A0 x 100): The resulting photochromic plastic lens was subjected to accelerated degradation for 96 hours using a xenon weather meter X25 manufactured by Suga Test Instruments Co., Ltd. Color developing densities were then evaluated before and after a test, and a color developing density before the test (A0) and a color developing density after the test (A96) were measured. A ratio (A96/A0) was determined as a residual ratio and was used as an index of color development durability. The higher the residual ratio is, the more durable the color development is.
First, the photochromic compound obtained in Example 1, an additive, and a polymerizable compound were mixed to obtain a curable composition. The polymerizable compound was a combination of the following polymerizable monomers: • · 1,3-Bis(isocyanatomethyl)cyclohexane: 36.7 parts by mass • · Pentaerythritol tetrakis(3-mercaptopropionate): 39.4 parts by mass • · Polyoxyethylene polyoxypropylene lauryl ether (WONDERSURF 140 manufactured by AOKI OIL INDUSTRIAL Co., Ltd.): 17.4 parts by mass • · 1-Decanethiol: 2.8 parts by mass • · RX-1 prepared by the method described in Patent Document 14: 3.8 parts by mass
Note that, in the curable composition, the photochromic compound was added in an amount of 0.106 mmol taking a total amount of the polymerizable monomers as 100 g.
The following additives were used: • · Dimethyltin dichloride: 0.05 parts by mass • · Irganox 245: 0.1 parts by mass • · 2-Ethylhexyl […]: 0.6 parts by mass
After the thus-prepared curable composition was thoroughly defoamed, it was poured into a glass mold with a gap of 1 mm and polymerized by casting polymerization. […] After the polymerization, the resulting cured product was removed from the glass mold to obtain a photochromic cured product with a thickness of 1 mm. The resulting photochromic cured product was evaluated in the same manner as for Example 23.
Photochromic cured products were produced using the photochromic compounds shown in Table 4 in the same manner as in Example 50.

[2] = Photochromic property of binder sheet (photochromic layer made by binder method); conditions: for Color developing density at 23°C: absorbance difference after 240 seconds irradiation at the maximum absorption wavelength of the same line
Method: as §1
A binder sheet was produced as follows. The binder sheet was made by laminating a first optical sheet, a first adhesive layer, a photochromic layer, a second adhesive layer, and a second optical sheet in this order. A polycarbonate sheet with a thickness of 400 µm was used as the first optical sheet and the second optical sheet.
A 2 L four-necked flask equipped with a stirring blade, a condense tube, a thermometer, and a nitrogen gas inlet tube was charged with 315 parts by mass of polycarbonate diol with a number average molecular weight of 1000, 100 parts by mass of isophorone diisocyanate, and 72 parts by mass of toluene and reacted under a nitrogen atmosphere at 100°C for 7 hours. Thus, a urethane prepolymer with a terminal isocyanate group was synthesized. After the reaction of the above-mentioned urethane prepolymer was completed, the resulting reaction liquid was cooled to about 0°C and dissolved in 205 parts by mass of tertiary-butyl alcohol and 382 parts by mass of diethyl ketone, and then a temperature of the resulting liquid was kept at 0°C. Next, a mixed solution of 21.3 parts by mass of bis-(4-aminocyclohexyl)methane serving as a chain extender and 20 parts by mass of diethyl ketone was added dropwise thereto within 30 minutes and reacted at 0°C for 1 hour. Then, 8.1 parts by mass of 1,2,2,6,6-pentamethyl-4-aminopiperidine was added dropwise thereto and reacted at 0°C for 1 hour to obtain a solution of a terminal non-reactive urethane urea resin in diethylketone.
One hundred parts by mass of the resulting solution of a terminal non-reactive urethane urea resin, 6.3 parts by mass of Example 1 (a photochromic compound represented by Formula (1-7), an isomer mixture of 4,4'-methylenebis(cyclohexylisocyanate) (polyisocyanate compound)), 0.4 parts by mass of ethylenebis(oxyethylene) bis[3-(5-tert-butyl-4-hydroxy-m-tolyl) propionate] serving as an antioxidant, and 0.06 parts by mass of L-7001 manufactured by DuPont Toray Specialty Materials K.K. serving as a surfactant were added and stirred and mixed at room temperature to obtain a composition for forming a photochromic layer. […]

[3] = Photochromic property of photochromic laminate made by coating method
How it was run: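 Compound at 0.25 mmol per 100 g methacrylate monomer mix, spin-coated 40 µm on a primed thiourethane lens, photocured 90 s under N2, then 110°C for 1 h. λmax and A23 measured after 240 s irradiation at 23°C; τ1/2 is time to half-fade after irradiation stops. Residual ratio A96/A0 after 96 h xenon weathering.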

| Structure (SMILES) | Residual ratio [1] | Color developing density at 23°C [1] | Residual ratio ([2]; A96/A0 x 100 after 96 hours accelerated degradation, xenon weather meter X25) [%] | Color developing density at 23°C [2] | Color fading half-life at 23°C [3] [min] | Residual ratio ([3]; laminate by coating method, A96/A0 x 100 after 96 hours accelerated degradation, xenon weather meter X25) [%] |
| --- | --- | --- | --- | --- | --- | --- |
| CCCC1(CC)c2ccccc2-c2c1c1c(c3cc(OC)c(Sc4c(C)cccc4C)cc23)OC(c2ccc(OC)cc2)(c2ccc(N3CCOCC3)cc2)C=C1 (stereo not shown) [Formula (4-5)] | 79% and 77% | 0.77 - and 0.74 - | 90 | 0.76 - and 0.75 - | 0.717 | – |
| CCCCC1(CC)c2ccccc2-c2c1c1c(c3cc(OC)c(C)cc23)OC(c2ccc(OC)cc2)(c2ccc(OCCC)cc2)C=C1 (stereo not shown) [Formula (2-2)] | 78% | 0.90 - and 0.89 - | – | 0.89 - and 0.83 - | 1.65 | 68 |
